Laboratory results as given in patent publication EP1043318A1 (priority 1997, dated 1999).

Legend:
C. trachomatis D323 = assay: Activity on Chlamydia trachomatis in infected cell culture; type: cell-based; conditions: for No. of unchanged cells: 100 viewing fields, cell control 9.000, infected cells 6.000
[1] = tested on: herpes simplex type 1 (VPG-1/Leningrad/248/88); assay: Antiviral activity on herpes virus, cytopathic effect in Vero cell culture; type: cell-based, herpes simplex virus; conditions: unchanged Vero cells after 36 hours
Acute toxicity in mice = assay: Acute toxicity in mice; design: species or system non-linebred white mice; conditions: mouse, in vivo, iv, by mouth or intravenously, 14 days observation
Method: Acute toxicity was determined on non-linebred white mice weighing 18-20 g. The claimed compounds were prepared in a range of concentrations: 1500, 700, 500, 100, 20 and 5 µg/kg. Five animals were used to study each specific concentration of a compound. The preparation was administered once a day by mouth of intravenously. The observation period was 14 days On days 1, 8 and 15 the animals in every group were weighed. For a control we used animals who received the emulsion without the test compounds. All animals, both those that died in the course of the experiment and those that survived to the end of the experiment, were opened to allow macroscopic examination of internal organs. In the course of the experiment no loss of weight was observed or any change in behavior or external appearance, nor was there any loss of life. Based on the results of the macroscopic examination of internal organs of the animals in the test and the control groups, no pathological findings were made, [text missing]

M. tuberculosis 61 (S) = assay: Activity on pathogenic mycobacteria, growth on Lewenstein-Jensen medium (sensitive strain); type: cell-based; conditions: strain sensitive to control preparations; concentration of the preparation 50.0 g/l (table title); incubated 30 days
[2] = tested on: primary culture of humans lymphocytes; assay: Interferon-inducing activity in primary lymphocyte culture (immunoenzyme determination of INF); type: cell-based, human

Row | Molecule | number of cells in 100 fields ([1]; 10 mg/l) | number of cells in 100 fields ([1]; 50 mg/l) | number of cells in 100 fields ([1]; 100 mg/l) | M. tuberculosis 61S growth (M. tuberculosis 61 (S)) | Concentration of INF in induction mixture after 24 hrs. of incubation ([2]; 1 mg/l of the preparation) | Concentration of INF in induction mixture after 24 hrs. of incubation ([2]; 10 mg/l of the preparation) | Concentration of INF in induction mixture after 24 hrs. of incubation ([2]; 100 mg/l of the preparation) | further results
1 | 2-hydroxyethylammonium salt of 5,5'-(p-nitrobenzylidene)bisbarbituric acid [III] | 2000 | 3000 | 5500 |  |  |  |  | percent protection of the cells against infection (C. trachomatis D323; 10 mg/l): 60%; No. of unchanged cells (C. trachomatis D323; 10 mg/l): 7800; percent protection of the cells against infection (C. trachomatis D323; 100 mg/l): 65%; No. of unchanged cells (C. trachomatis D323; 100 mg/l): 7950
2 | O=C1NC(=S)NC(=O)C1C(c1ccc([N+](=O)[O-])cc1)C1C(=O)NC(=S)NC1=O [X, 5,5'-(p-nitrobenzylidene)bis (2-thiobarbituric) acid] | 10000 | 10000 | 3000 | complete suppression of growth | 4.0 ± 0.5 IU/3·10^4 lymph/ml | 23 ± 1.0 IU/3·10^4 lymph/ml | 47 ± 0.8 IU/3·10^4 lymph/ml | LD50 at 336 h (Acute toxicity in mice): 1000 mg/kg
3 | O=C1NC(=S)NC(=O)C1C(c1ccc(Cl)cc1)C1C(=O)NC(=S)NC1=O [IX] | 10000 | 10000 | 3000 |  | 5,6 ± 0,8 IU/3·10^4 lymph/ml | 21,0 ± 0,9 IU/3·10^4 lymph/ml | 35,2 ± 1,6 IU/3·10^4 lymph/ml | 
4 | NNC(=O)c1ccncc1 [Isoniazid] |  |  |  | complete suppression of growth |  |  |  | 
5 | pyridine salt of 5,5'-(p-bromobenzylidene)bisbarbituric acid [VIII] | 10000 | 2500 | 5000 |  | 0,9 ± 0,2 IU/3·10^4 lymph/ml | 1,2 ± 0,4 IU/3·10^4 lymph/ml | 3,8 ± 0,4 IU/3·10^4 lymph/ml | 
6 | Nc1nc2c(ncn2COCCO)c(=O)[nH]1 [Acyclovir, reference compound] | 8000 |  |  |  |  |  |  | 
7 | [H]/N=C(/N)N[C@H]1[C@H](O)[C@@H](O)[C@H](O[C@@H]2O[C@@H](C)[C@](O)(C=O)[C@H]2O[C@@H]2O[C@@H](CO)[C@H](O)[C@@H](O)[C@@H]2NC)[C@@H](N/C(N)=N\[H])[C@@H]1O [Streptomycin] |  |  |  | complete suppression of growth |  |  |  | 
8 | pyridine salt of 5,5'-(p-chlorobenzylidene)bis(2-thiobarbituric) acid [IV] | 10000 | 2000 | 4000 |  | 1,3 ± 0,5 IU/3·10^4 lymph/ml | 3,7 ± 1,0 IU/3·10^4 lymph/ml | 23,0 ± 1,7 IU/3·10^4 lymph/ml | 
9 | CC[C@@H](CO)NCCN[C@@H](CC)CO [Ethambutol] |  |  |  | complete suppression of growth |  |  |  | 
